The values that follow come from patent US20030212254A1, “Use of an anion exchange resin (emp-7) as solid support for peptide synthesis and affinity chromatography” (priority 1999, published 2003).

The subject of the assay is monoclonal antibody specific for (NANP)3 / recombinant protein containing the repetitive domain (NANP)n interaction. Nature of the assay: Inhibition ELISA: inhibition of the monoclonal antibody-recombinant protein interaction. The format is binding, mouse. The conditions noted are these: 2000 to 3,9 μg/ml peptide or peptide-resin; 2 h at room temperature; absorbance at 492 nm; FIG. 6. As to the method: In brief, the designed immunological experiment encompassed the following steps: the purified recombinant protein containing the repetitive domain (NANP)n of the circunsporozoite form of Plasmodium falciparum (v.g. Cell, 70, 1021-1033, [1992]) was added to Elisa's plate (200 ng/well) and maintained overnight at room temperature. After 3 washes with phosphate buffer containing 0,05% Tween-20, the plates were treated at 37° C. with PBS containing 5% disnatured milk and 1% serum bovine albumin. To calculate the degree of interaction of this recombinant protein with its antibody, the plates were treated with a specific monoclonal antibody for the (NANP)3 sequence obtained according to the reference in Science 228, 1436-1440 (1985), in a final concentration of 20 ng/ml. […] After 1 h of incubation at room temperature, the excess of labeled antibody was removed during the washings and the calorimetric reaction with o-phenilenediamine was developed and read at 492 nm. […]
100 μl of PBS were added to 2000 μg/ml to 3,9 μg/ml of free peptide (acetyl-NANP)3 or of {[(acetil-NANP)3]4-Eac4-(Lys)2-Lys-DEAE-Sephadex A50}resin. […] The absorbance of solutions was measured at 492 nm and the percentage of inhibition of this interaction antibody-recombinant protein induced by peptide-resin, resin or peptide was calculated according to the equation: […]
Background: An ELISA detects its analyte on a solid surface through an enzyme-linked reagent.

On to acetyl-(NANP)3 [free (acetyl-NANP)3], for which the “inhibition of the antibody-recombinant protein interaction” value was “highest inhibition”.
